Here are results for four molecules from PubChem BioAssay AID1259407 (Chemical Carcinogenesis Research Information System (CCRIS), 2018).

The data set deals with CCRIS mutagenicity, Ames/micronucleus/aberration tests. The data set is described as follows: CCRIS mutagenicity studies.

Active and inactive are the calls of the source. The rule behind the calls is not given here.

As for `c1cc2ccc3nc4ccccc4c4ccc(c1)c2c34`, the mutagenic call by setting is: (Test System: AMES SALMONELLA TYPHIMURIUM, Strain/Indicator: TA98, Metabolic Activation: NONE) “inactive; negative”; (Test System: AMES SALMONELLA TYPHIMURIUM, Strain/Indicator: TA98, Metabolic Activation: S-9) “active; positive”; (Test System: AMES SALMONELLA TYPHIMURIUM, Strain/Indicator: TA100, Metabolic Activation: NONE) “inactive; negative”; (Test System: AMES SALMONELLA TYPHIMURIUM, Strain/Indicator: TA100, Metabolic Activation: S-9) “active; positive”.
As to `CCC/C=C/C(=O)O[C@@H]1C(C)(C)C[C@@H]2C34CC3(C(C=O)=C[C@]12O)[C@@H](O)OC4=O` (some centres undefined), the mutagenic call reads like this: (Test System: AMES SALMONELLA TYPHIMURIUM, Strain/Indicator: TA98, Metabolic Activation: NONE, Method: SPOT TEST) “active; positive”; (Test System: AMES SALMONELLA TYPHIMURIUM, Strain/Indicator: TA98, Metabolic Activation: NONE, Method: STANDARD PLATE) “active; positive”; (Test System: AMES SALMONELLA TYPHIMURIUM, Strain/Indicator: TA100, Metabolic Activation: NONE, Method: SPOT TEST) “inactive; negative”; (Test System: AMES SALMONELLA TYPHIMURIUM, Strain/Indicator: TA100, Metabolic Activation: NONE, Method: STANDARD PLATE) “active; positive”; (Test System: AMES SALMONELLA TYPHIMURIUM, Strain/Indicator: TA1535, Metabolic Activation: NONE, Method: SPOT TEST) “inactive; negative”; (Test System: AMES SALMONELLA TYPHIMURIUM, Strain/Indicator: TA1538, Metabolic Activation: NONE, Method: SPOT TEST) “inactive; negative”. Moreover, under “Test System: AMES SALMONELLA TYPHIMURIUM, Strain/Indicator: TA2637, Metabolic Activation: NONE, Method: STANDARD PLATE”, the mutagenic call is “active; positive”.
Regarding `c1ccc(Nc2ccc3ccccc3c2)cc1`, the mutagenic call was “inactive; negative” (End Point: IN VITRO CHROMOSOMAL ABERRATIONS, Test System: CHINESE HAMSTER LUNG CELLS (CHL), Metabolic Activation: NONE); “active; positive (structural changes)” (End Point: IN VITRO CHROMOSOMAL ABERRATIONS, Test System: CHINESE HAMSTER LUNG CELLS (CHL), Metabolic Activation: RAT, LIVER, S-9, KC-400); “inactive; negative” (End Point: IN VITRO CHROMOSOMAL ABERRATIONS, Test System: CHINESE HAMSTER OVARY CELLS (CHO), Metabolic Activation: NONE); “inactive; negative” (End Point: IN VITRO CHROMOSOMAL ABERRATIONS, Test System: CHINESE HAMSTER OVARY CELLS (CHO), Metabolic Activation: RAT, LIVER, S-9, AROCLOR 1254); “inactive; negative” (End Point: IN VITRO CHROMOSOMAL ABERRATIONS, Test System: CHO CELLS, Metabolic Activation: NONE); “inactive; negative” (End Point: IN VITRO CHROMOSOMAL ABERRATIONS, Test System: CHO CELLS, Metabolic Activation: RAT, LIVER, S-9, AROCLOR 1254). In addition, the mutagenic call reads like this: (Test System: AMES SALMONELLA TYPHIMURIUM, Strain/Indicator: TA97, Metabolic Activation: HAMSTER, LIVER, S-9, AROCLOR 1254 (10%), Method: PREINCUBATION) “inactive; negative”; (Test System: AMES SALMONELLA TYPHIMURIUM, Strain/Indicator: TA97, Metabolic Activation: HAMSTER, LIVER, S-9, AROCLOR 1254 (30%), Method: PREINCUBATION) “inactive; negative”; (Test System: AMES SALMONELLA TYPHIMURIUM, Strain/Indicator: TA97, Metabolic Activation: HAMSTER, LIVER, S-9, AROCLOR 1254, Method: PREINCUBATION) “inactive; negative”; (Test System: AMES SALMONELLA TYPHIMURIUM, Strain/Indicator: TA97, Metabolic Activation: NONE, Method: PREINCUBATION) “inactive; negative”; (Test System: AMES SALMONELLA TYPHIMURIUM, Strain/Indicator: TA97, Metabolic Activation: RAT, LIVER, S-9, AROCLOR 1254 (10%), Method: PREINCUBATION) “inactive; negative”; (Test System: AMES SALMONELLA TYPHIMURIUM, Strain/Indicator: TA97, Metabolic Activation: RAT, LIVER, S-9, AROCLOR 1254 (30%), Method: PREINCUBATION) “inactive; negative”. Also, the mutagenic call is, setting by setting: (Test System: AMES SALMONELLA TYPHIMURIUM, Strain/Indicator: TA97, Metabolic Activation: RAT, LIVER, S-9, AROCLOR 1254, Method: PREINCUBATION) “inactive; negative”; (Test System: AMES SALMONELLA TYPHIMURIUM, Strain/Indicator: TA98, Metabolic Activation: HAMSTER, LIVER, S-9, AROCLOR 1254 (10%), Method: PREINCUBATION) “inactive; negative”; (Test System: AMES SALMONELLA TYPHIMURIUM, Strain/Indicator: TA98, Metabolic Activation: HAMSTER, LIVER, S-9, AROCLOR 1254 (30%), Method: PREINCUBATION) “inactive; negative”; (Test System: AMES SALMONELLA TYPHIMURIUM, Strain/Indicator: TA98, Metabolic Activation: HAMSTER, LIVER, S-9, AROCLOR 1254, Method: PREINCUBATION) “inactive; negative”; (Test System: AMES SALMONELLA TYPHIMURIUM, Strain/Indicator: TA98, Metabolic Activation: NONE, Method: PREINCUBATION) “inactive; negative”; (Test System: AMES SALMONELLA TYPHIMURIUM, Strain/Indicator: TA98, Metabolic Activation: RAT, LIVER, S-9, AROCLOR 1254 (10%), Method: PREINCUBATION) “inactive; negative”. The mutagenic call was “inactive; negative” (Test System: AMES SALMONELLA TYPHIMURIUM, Strain/Indicator: TA98, Metabolic Activation: RAT, LIVER, S-9, AROCLOR 1254 (30%), Method: PREINCUBATION); “inactive; negative” (Test System: AMES SALMONELLA TYPHIMURIUM, Strain/Indicator: TA98, Metabolic Activation: RAT, LIVER, S-9, AROCLOR 1254, Method: PREINCUBATION); “inactive; negative” (Test System: AMES SALMONELLA TYPHIMURIUM, Strain/Indicator: TA100, Metabolic Activation: HAMSTER, LIVER, S-9, AROCLOR 1254 (10%), Method: PREINCUBATION); “inactive; negative” (Test System: AMES SALMONELLA TYPHIMURIUM, Strain/Indicator: TA100, Metabolic Activation: HAMSTER, LIVER, S-9, AROCLOR 1254 (30%), Method: PREINCUBATION); “inactive; negative” (Test System: AMES SALMONELLA TYPHIMURIUM, Strain/Indicator: TA100, Metabolic Activation: HAMSTER, LIVER, S-9, AROCLOR 1254, Method: PREINCUBATION); “inactive; negative” (Test System: AMES SALMONELLA TYPHIMURIUM, Strain/Indicator: TA100, Metabolic Activation: NONE, Method: PREINCUBATION). In addition, the mutagenic call reads like this: (Test System: AMES SALMONELLA TYPHIMURIUM, Strain/Indicator: TA100, Metabolic Activation: RAT, LIVER, S-9, AROCLOR 1254 (10%), Method: PREINCUBATION) “inactive; negative”; (Test System: AMES SALMONELLA TYPHIMURIUM, Strain/Indicator: TA100, Metabolic Activation: RAT, LIVER, S-9, AROCLOR 1254 (30%), Method: PREINCUBATION) “inactive; negative”; (Test System: AMES SALMONELLA TYPHIMURIUM, Strain/Indicator: TA100, Metabolic Activation: RAT, LIVER, S-9, AROCLOR 1254, Method: PREINCUBATION) “inactive; negative”; (Test System: AMES SALMONELLA TYPHIMURIUM, Strain/Indicator: TA1535, Metabolic Activation: HAMSTER, LIVER, S-9, AROCLOR 1254 (10%), Method: PREINCUBATION) “inactive; negative”; (Test System: AMES SALMONELLA TYPHIMURIUM, Strain/Indicator: TA1535, Metabolic Activation: HAMSTER, LIVER, S-9, AROCLOR 1254 (30%), Method: PREINCUBATION) “inactive; negative”; (Test System: AMES SALMONELLA TYPHIMURIUM, Strain/Indicator: TA1535, Metabolic Activation: HAMSTER, LIVER, S-9, AROCLOR 1254, Method: PREINCUBATION) “inactive; negative”. Also, the mutagenic call was “inactive; negative” (Test System: AMES SALMONELLA TYPHIMURIUM, Strain/Indicator: TA1535, Metabolic Activation: NONE, Method: PREINCUBATION); “inactive; negative” (Test System: AMES SALMONELLA TYPHIMURIUM, Strain/Indicator: TA1535, Metabolic Activation: RAT, LIVER, S-9, AROCLOR 1254 (10%), Method: PREINCUBATION); “inactive; negative” (Test System: AMES SALMONELLA TYPHIMURIUM, Strain/Indicator: TA1535, Metabolic Activation: RAT, LIVER, S-9, AROCLOR 1254 (30%), Method: PREINCUBATION); “inactive; negative” (Test System: AMES SALMONELLA TYPHIMURIUM, Strain/Indicator: TA1535, Metabolic Activation: RAT, LIVER, S-9, AROCLOR 1254, Method: PREINCUBATION); “inactive; negative” (Test System: MOUSE LYMPHOMA, Strain/Indicator: L5178Y (TK+/TK-), Metabolic Activation: NONE, Method: SUSPENSION/PLATE); “active; positive” (Test System: MOUSE LYMPHOMA, Strain/Indicator: L5178Y (TK+/TK-), Metabolic Activation: RAT, LIVER, S-9, AROCLOR 1254, Method: SUSPENSION/PLATE).
Consider `Cn1c(N)nc2cc3ccccc3cc21`, for which the mutagenic call (Test System: AMES SALMONELLA TYPHIMURIUM, Strain/Indicator: TA98, Metabolic Activation: RAT, LIVER, S-9, AROCLOR 1254A, Method: STANDARD PLATE) was “active; positive” and the mutagenic call (Test System: AMES SALMONELLA TYPHIMURIUM, Strain/Indicator: YG1024, Metabolic Activation: RAT, LIVER, S-9, AROCLOR 1254A, Method: STANDARD PLATE) was “active; positive”.
